Molecular target: T1, interaction between laminin receptor and GST-KRS (Homo sapiens, UniProt Q15046)
T1 construct: made in house; host or cells: GST-KRS: E. coli Rosetta (DE3); 37LRP: TNT Quick coupled Transcription/Translation system (Promega) from pcDNA3-37LRP
Test: In vitro pull-down of radiolabelled laminin receptor with GST-KRS
Type: binding
Settings: KL1 in different amounts; GST-KRS 1 μg; autoradiography
Protocol: As a control, an OD level of cells treated with DMSO was measured. FIG. 32 is a photograph showing cell growth in wells containing yeast cells having indicated interaction pairs in the presence or absence of CAND-KL1. In FIG. 33, in 293 cells, through co-immunoprecipitation, the KL1-dose-dependent effect on the interaction between KRS and 67LR was tested. The cells were treated with KL1 for 3 hours, 67LR was immunoprecipitated, and co-precipitation of KRS was determined by western blotting. In FIG. 34, in the presence of KL1 in indicated levels, a laminin receptor labeled with radioisotope was mixed with GST-KRS (1 μg). GST-KRS was precipitated with glutathione-Sepharose beads, and co-precipitated laminin receptor was detected with autoradiography. In FIG. 35, in A549 cells, the effect of KL1 on the intracellular level of 67LR and 37LRP was tested with western blotting. […] GST-KRS was immobilized on a CM5 Sensor Chip, and the binding was measured by a resonance unit (RU) at indicated concentrations (indicated by different colors). […]
From among the compounds, the inventors also examined whether the compound represented by Formula 15 (indicated by CAND-KL1, and KL1) can inhibit the intracellular interaction between KRS and 67LR. […] Then, 67LR was immunoprecipitated with its antibody, and co-immunoprecipitation of KRS was determined. […]

T1 sequence (Q15046 whole entry): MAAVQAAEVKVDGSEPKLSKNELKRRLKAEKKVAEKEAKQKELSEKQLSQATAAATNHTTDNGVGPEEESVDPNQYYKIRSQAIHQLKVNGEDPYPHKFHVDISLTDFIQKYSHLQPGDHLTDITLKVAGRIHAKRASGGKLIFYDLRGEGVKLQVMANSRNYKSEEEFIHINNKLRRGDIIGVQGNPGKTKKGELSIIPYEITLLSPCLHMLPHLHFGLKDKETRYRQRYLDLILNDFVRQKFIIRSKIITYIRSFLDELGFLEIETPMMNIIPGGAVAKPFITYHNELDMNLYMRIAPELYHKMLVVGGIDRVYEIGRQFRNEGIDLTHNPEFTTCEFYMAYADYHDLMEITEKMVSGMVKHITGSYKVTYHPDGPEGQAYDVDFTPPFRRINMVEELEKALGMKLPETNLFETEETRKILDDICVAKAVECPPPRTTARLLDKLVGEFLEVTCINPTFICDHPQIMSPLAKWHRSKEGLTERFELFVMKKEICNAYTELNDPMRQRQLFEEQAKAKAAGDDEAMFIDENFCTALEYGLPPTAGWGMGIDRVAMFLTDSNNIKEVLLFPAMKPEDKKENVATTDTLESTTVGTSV

CCC(C(=O)O)n1/c(=N/C(=O)c2ccc(C)cc2)sc2ccccc21 (stereo not shown) [Compound of formula 15, 2-[2-(4-Methyl-benzoylimino)-benzothiazol-3-yl]-butyric acid]
level of laminin receptor pulled down with GST-KRS: decreased according to an increase of the added KL1 compound
